Here are results for eleven compounds from article PMC6458156, “Improved predictions of time-dependent drug-drug interactions by determination of cytosolic drug concentrations” (Scientific Reports, 2019).

Series [1] can be described thus: Non-specific binding of drugs in human liver microsomes (fu,mic), rapid equilibrium dialysis. To be noted: unbound drug fraction in the microsomal mixture, inhibitor 1 µM, 37 °C. The series is classed as in vitro ADME.
In series [2] the test system is CYP2D6. Set-up: method as in earlier work. To be noted: in HLM; ref DIDB; cited from earlier work.
Series [3] concerns CYP3A4. Set-up: method as in earlier work. The note with it: ref DIDB; cited from earlier work.
The test system of series [4] is OATP1A2. To be noted: read-out: IC50 (OATP1A2); ref DIDB; cited from earlier work.
Series [5] has as its system OCT1. The note with it: read-out: IC50 (OCT1); ref DIDB; cited from earlier work.
For series [6], the system named is OCT2. The note with it: read-out: IC50 (OCT2); ref DIDB; cited from earlier work.
The test system of series [7] is MATE1. The note with it: read-out: IC50 (MATE1); ref DIDB; cited from earlier work.
For series [8], the system named is MATE2-K. To be noted: read-out: IC50 (MATE2-K); ref DIDB; cited from earlier work.
Series [9] concerns P-gp. To be noted: read-out: Ki (P-gp); ref DIDB; cited from earlier work.
Series [10] can be described thus: Intracellular fraction of unbound drug (fu,cell), dialysis of human hepatocyte homogenate. To be noted: homogenate of cryopreserved human hepatocytes, geometrical mean ± SD of triplicates. In kind it is in vitro ADME.
A short description of series [11]: Intracellular drug accumulation ratio (Kp) and intracellular bioavailability (Fic) in cryopreserved human hepatocytes. The series is classed as in vitro ADME. To be noted: human, cryopreserved human hepatocytes in suspension; cellular drug accumulation ratio; 0.5 µM drug; no chloroquine; geometrical mean ± SD of triplicates.
Series [12] has as its system human hepatocytes. The series is described as above. In kind it is in vitro ADME. To be noted: intracellular bioavailability = fu,cell × Kp; human hepatocytes.
The test system of series [13] is human hepatocytes. Briefly: Cytosolic drug accumulation ratio (Kpcyto) and cytosolic bioavailability (Fcyto) in human hepatocytes with chloroquine. In kind it is in vitro ADME. To be noted: for Kpcyto: cellular drug accumulation ratio in the presence of chloroquine (100 µM, 45 min), 0.5 µM drug; for Fcyto: cytosolic bioavailability = fu,cell × Kpcyto; for Fcyto / Fic/Fcyto: human hepatocytes; for Fic/Fcyto: ratio of intracellular to cytosolic bioavailability.

The conditions of series [14]: cited from earlier work; for ka: absorption rate constant, 35-40 (verapamil); for ka / Fa: ref 5,17 (crizotinib), 19-21 (erythromycin), 22-25 (imatinib), 20,32,33 (roxithromycin), 4,34 (telithromycin); for Cave,ss: average plasma concentration at steady-state; for Fa: fraction absorbed, 6,18 (diltiazem), 26-28 (nefazodone), 29,30 (nilotinib), 29,31 (pazopanib); for Cmax,ss: maximum plasma concentration at steady-state.

For series [15], the system named is transporters. Set-up: method as in earlier work. The note with it: cells wrapped over several lines are given as printed fragments; ref DIDB; cited from earlier work.
Series [16] addresses T1, CYP3A (Homo sapiens, UniProt P08684). In words: in vitro. The note with it: microsomes, pH 7.4.
For series [17], the target named is T1, CYP3A. Briefly: in vitro.
For series [18], the target named is T1, CYP3A. The note with it: probe drugs midazolam and simvastatin, in vivo; ref University of Washington Drug Interaction Database; cited from earlier work.
The test system of series [19] is CYP3A4. The note with it: midazolam; cited from earlier work.
[20] abbreviates: HLM 0.1 mg/ml, read-out: fu,mic at 0.1 mg/ml.
Where [21] appears, read: HLM 0.5 mg/ml, read-out: fu,mic at 0.5 mg/ml.
The mark [22] stands for this setting: pH 7.4, KI, inactivation constant, HLM 0.5 mg/ml preincubation 0-30 min, midazolam 20 µM, mean ± SD of triplicates.
The mark [23] stands for this setting: pH 7.4, KI,u, calculated as fu,mic at 0.5 mg/ml × KI.

Where two headings read alike, the source gives them in different places.

T1 sequence (P08684 2-503): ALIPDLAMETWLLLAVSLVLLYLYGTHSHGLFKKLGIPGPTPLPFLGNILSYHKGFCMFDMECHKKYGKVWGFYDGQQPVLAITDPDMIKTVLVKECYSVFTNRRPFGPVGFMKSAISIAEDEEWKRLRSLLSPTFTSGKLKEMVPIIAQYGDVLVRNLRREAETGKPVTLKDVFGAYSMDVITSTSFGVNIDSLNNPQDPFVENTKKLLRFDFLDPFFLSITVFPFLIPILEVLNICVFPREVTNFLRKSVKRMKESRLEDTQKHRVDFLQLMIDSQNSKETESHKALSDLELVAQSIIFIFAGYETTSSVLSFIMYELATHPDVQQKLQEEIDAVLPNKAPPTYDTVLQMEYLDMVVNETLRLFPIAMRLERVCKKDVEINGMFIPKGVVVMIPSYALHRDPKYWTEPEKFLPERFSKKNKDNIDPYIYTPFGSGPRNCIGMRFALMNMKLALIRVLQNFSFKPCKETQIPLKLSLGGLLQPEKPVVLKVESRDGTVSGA

For `CC[C@H]1OC(=O)[C@H](C)[C@@H](O[C@H]2C[C@@](C)(OC)[C@@H](O)[C@H](C)O2)[C@H](C)[C@@H](O[C@@H]2O[C@H](C)C[C@H](N(C)C)[C@H]2O)[C@](C)(O)C[C@@H](C)CN(C)[C@H](C)[C@@H](O)[C@]1(C)O` [Azithromycin], the fraction unbound at 4 h, 1 µM in series [1] (setting [20]) turned out to be 0.766; in series [1] (setting [21]), 0.765.
Usually IC50 stands for the midpoint of a concentration-inhibition curve. As a reminder, the Ki is a dissociation constant, usually derived from enzyme kinetics or from competition with a known ligand. Regarding `CCN(CC)CCCC(C)Nc1ccnc2cc(Cl)ccc12` (stereo not drawn) [Chloroquine], the concentration for half-maximal inhibition (IC50) in [2] was around 50000 nM; in series [3], 150000 nM; in series [4], […]; in series [5] it was 13000 nM; in [6], around 100000 nM; in series [7] it was 1500 nM. In addition, the concentration for half-maximal inhibition (IC50) in [8] was 4000 nM. For the same compound, the Ki in series [9] was […].
As for `C[C@@H](Oc1cc(-c2cnn(C3CCNCC3)c2)cnc1N)c1c(Cl)ccc(F)c1Cl` [Crizotinib], the fraction unbound at 4 h, 1 µM in [1] (setting [20]) is 0.505. Also, the fraction unbound at 4 h, 1 µM in series [1] (setting [21]) was 0.118. This compound showed a fraction unbound at 4 h in [10] of 0.0006 ± 0.0001. The Kp at 0.5 µM in series [11] turned out to be 75 ± 0.11. The Fic in series [12] was found to be 0.044 ± 0.005. In series [13], the Kpcyto was 70 ± 0.4 and the Fcyto was 0.041 ± 0.005. Besides, in series [14], the ka was 0.817 h⁻¹ and the Fa is reported as 0.4. In [14] (100 mg qd), the “Cave,ss” value was 45 ng/mL and the “Cmax,ss” value was 86 ng/mL. In series [14] (250 mg bid), the “Cave,ss” value was 129 ng/mL and the “Cmax,ss” value is 327 ng/mL. In addition, in [14] (300 mg bid), the “Cave,ss” value is 169 ng/mL and the “Cmax,ss” value is 420 ng/mL. In series [15], the “Substrate of other transporters in vitro” value is given as “OATP1B1/3, 2B1”. In series [16], this compound showed an IC50 at 5 min above 100000 nM and a Ki at 5 min of 97400 nM. The affinity in [17] (microsomes, pH 7.4), expressed as Ki, was 90 nM. In series [17] (setting [22]), this compound came in with a KI (inactivation) of 775 ± 130 nM. Also, in series [17] (setting [23]), the KI (inactivation) was 91 nM. Further, the “class of CYP3A inhibitor by increase in AUC of the probe drug” value (shortened to “class of CYP3A inhibitor by increase”) in series [18] is recorded as “medium (medium inhibitors causing a ≥2 but <5-fold increase)”.
As to `COc1ccc([C@@H]2Sc3ccccc3N(CCN(C)C)C(=O)[C@@H]2OC(C)=O)cc1` [Diltiazem], the fraction unbound at 4 h, 1 µM in [1] (setting [20]) came to 0.792; in [1] (setting [21]) it was 0.708. Moreover, the “Cmax,ss” value in [14] (60 mg tid) is 70 ng/mL; in series [14] (240 mg qd) it was 166 ng/mL.
For `CC[C@H]1OC(=O)[C@H](C)[C@@H](O[C@H]2C[C@@](C)(OC)[C@@H](O)[C@H](C)O2)[C@H](C)[C@@H](O[C@@H]2O[C@H](C)C[C@H](N(C)C)[C@H]2O)[C@](C)(O)C[C@@H](C)C(=O)[C@H](C)[C@@H](O)[C@]1(C)O` [Erythromycin], in series [1] (setting [20]), the fraction unbound at 4 h, 1 µM is 0.64. Besides, the fraction unbound at 4 h, 1 µM in [1] (setting [21]) was found to be 0.586. This compound returned a fraction unbound at 4 h in series [10] of 0.0444 ± 0.0013. Moreover, the Kp at 0.5 µM in [11] came to 1.5 ± 2.4. In addition, the Fic in series [12] stood at 0.066 ± 0.104. In series [13], the Kpcyto is 1.2 ± 4.33 and the Fcyto is listed as 0.052 ± 0.192. For the same compound, in series [14], the ka is 0.6 h⁻¹ and the Fa is reported as 0.65. Further, in [14] (500 mg tid), the “Cave,ss” value was 361 ng/mL and the “Cmax,ss” value was 821 ng/mL.
Regarding `Cc1ccc(NC(=O)c2ccc(CN3CCN(C)CC3)cc2)cc1Nc1nccc(-c2cccnc2)n1` [Imatinib], the “Cmax,ss” value in [14] (400 mg qd) was 2,596 ng/ml.
`CCc1nn(CCCN2CCN(c3cccc(Cl)c3)CC2)c(=O)n1CCOc1ccccc1` [Nefazodone]: in series [1] (setting [20]), the fraction unbound at 4 h, 1 µM amounted to 0.187. In [1] (setting [21]), the fraction unbound at 4 h, 1 µM came to 0.18. In series [10], this compound gave a fraction unbound at 4 h of 0.0019 ± 0.0001. The Kp at 0.5 µM in series [11] turned out to be 8.1 ± 1.3. In addition, the Fic in series [12] is on record as 0.015 ± 0.002. Further, in series [13], the Kpcyto was determined as 11 ± 1.6, the Fcyto was 0.021 ± 0.003 and the Fic/Fcyto came out at 0.74. Further, in series [14] (200 mg bid), the “Cave,ss” value is 582 ng/mL and the “Cmax,ss” value was 1,400 ng/ml. Besides, the Fa in series [14] is reported as 1.00. For the same compound, in [16], the IC50 at 5 min amounted to 2590 ± 220 nM and the affinity, expressed as Ki at 5 min, was 242 nM.
`Cc1cn(-c2cc(NC(=O)c3ccc(C)c(Nc4nccc(-c5cccnc5)n4)c3)cc(C(F)(F)F)c2)cn1` [Nilotinib]: the fraction unbound at 4 h, 1 µM in [1] (setting [20]) was found to be 0.195. For the same compound, the fraction unbound at 4 h, 1 µM in series [1] (setting [21]) turned out to be 0.121. In addition, the fraction unbound at 4 h in series [10] is 0.0002. For the same compound, the Fic in series [12] is listed as 0.022 ± 0.001. Besides, in series [13], the Kpcyto came out at 51 ± 9 and the Fcyto is listed as 0.008 ± 0.001. The Fa in series [14] was 0.30. In series [16], this compound showed a half-maximal inhibitory concentration (IC50) at 5 min of 1310 ± 300 nM and a Ki at 5 min of 128 nM. In series [17] (setting [22]), this compound yielded a KI (inactivation) of 1290 ± 230 nM. For the same compound, the KI (inactivation) in series [17] (setting [23]) was 156 nM. Also, in series [18], the “class of CYP3A inhibitor by increase” value is “medium (medium inhibitors causing a ≥2 but <5-fold increase)”.
On to `Cc1ccc(Nc2nccc(N(C)c3ccc4c(C)n(C)nc4c3)n2)cc1S(N)(=O)=O` [Pazopanib], for which the “Cave,ss” value in series [14] (800 mg qd) is on record as 30,971 ng/ml. The Fa in [14] is 0.80. For the same compound, the “Substrate of other transporters in vitro” value in series [15] is “OATP1B1/3, OCT1”.
For the compound `CC[C@H]1OC(=O)[C@H](C)C(=O)[C@H](C)[C@@H](O[C@@H]2O[C@H](C)C[C@H](N(C)C)[C@H]2O)[C@](C)(OC)C[C@@H](C)C(=O)[C@H](C)[C@H]2N(CCCCn3cnc(-c4cccnc4)c3)C(=O)O[C@]12C` [Telithromycin], in [1] (setting [20]), the fraction unbound at 4 h, 1 µM turned out to be 0.962. For the same compound, the fraction unbound at 4 h, 1 µM in [1] (setting [21]) is 0.657. For the same compound, the fraction unbound at 4 h in series [10] was 0.0371 ± 0.0016. Moreover, in [11], the Kp at 0.5 µM stood at 6.6 ± 0.6. Also, the Fic in series [12] is 0.25 ± 0.03. Also, in series [13] (absence vs presence of chloroquine, p ≤ 0.05 in Student’s t-test where called significant), the “Kp compared with Kpcyto” value is “comparable Kp and Kpcyto”. Moreover, in [13], the Kpcyto turned out to be 7.24 ± 0.8, the Fcyto is 0.27 ± 0.03 and the Fic/Fcyto was 0.92. For the same compound, in series [14], the ka was 0.95 h⁻¹ and the Fa is on record as 0.92. In addition, in series [14] (800 mg qd), the “Cave,ss” value is 425 ng/mL and the “Cmax,ss” value is listed as 1,840 ng/ml. Also, in series [16], inhibition was half-maximal at 14100 ± 3500 nM (IC50 at 5 min) and the inhibition constant Ki at 5 min was determined as 6770 nM. This compound also registered a KI (inactivation) in [17] (setting [22]) of 1490 ± 190 nM. The KI (inactivation) in series [17] (setting [23]) was 979 nM. Further, the “class of CYP3A inhibitor by increase” value in series [18] was “strong (strong inhibitors of CYP3A, causing a ≥5-fold increase in the area under the concentration-time curve (AUC) of the probe drug)”.
Take `Cc1ncc2n1-c1ccc(Cl)cc1C(c1ccccc1F)=NC2` [midazolam, Midazolam]: in series [19], the “fraction metabolized by CYP3A4 (fm)” value was 0.94 and the “fraction of drug escaping CYP3A4-mediated gut metabolism (FG)” value is 0.51.
